# Experimental data from patent US12097189B1, “Pharmaceutical composition for modified release” (ASTELLAS PHARMA INC., priority 2024, dated 2024).
# Legend:
# [1] = Elimination half-life of compound A; details: in vivo; read-out: elimination half-life (T1/2)
# Description: Taking into consideration the results of the clinical trial described above, the present inventors conducted intensive studies to design the formulation by paying attention to the control of a release rate of the drug from a formulation to the extent that the release is not affected by food intake or the like, rather than the addition of release control.
# [2] = Pharmacokinetics (PK) test of immediate release formulation (capsule formulation) in human: Cmax and heart rate; assay type: in vivo; details: healthy subjects; immediate release capsules, 0.1 mg to 340 mg
# Description: An immediate release formulation (capsule formulation) containing compound A was administered to healthy subjects in a fasted state, before 30 min from the intake of a meal, or after 30 min from the meal, and the drug concentration in the plasma was measured. The immediate release formulations (capsule formulations) containing 0.1 mg, 1 mg, 5 mg, 20 mg, and 80 mg of the compound A were used in combinations as needed so that the dose of compound A became 0.1 mg, 1 mg, 3 mg, 10 mg, 30 mg, 100 mg, 160 mg, 240 mg, and 340 mg.
structure (smiles),measurement,setting,value
"Nc1nc(CC(=O)Nc2ccc(CCNC[C@H](O)c3ccccc3)cc2)cs1 [compound A, (R)-2-(2-aminothiazol-4-yl)-4′-[2-[(2-hydroxy-2-phenylethyl)amino]ethyl]acetic acid anilide]",half-life,[1],18 to 24 h
same,relation between maximum plasma concentration (Cmax) and increase in heart rate from the base line,[2],a positive correlation was observed
